Results: patent US7456167B2, “Cyclopropyl fused indolobenzazepine HCV NS5B inhibitors” (Bristol-Myers Squibb Company, priority 2006, dated 2008)

Assays:
[1] = molecular target: T1, HCV NS5B RdRp genotype 1b (Hepatitis C virus genotype 1b, UniProt Q9WMX2); test: Modified HCV NS5B RdRp enzyme assay (preincubation protocol); format: biochemical; settings: HCV NS5B RdRp genotype 1b; preincubation protocol; read-out: IC50
T1 construct: The protein was expressed with an 18 amino acid C-terminal truncation to enhance the solubility; made in house; host or cells: E. coli BL21(DE3)
T1 sequence (Q9WMX2 2420-2992): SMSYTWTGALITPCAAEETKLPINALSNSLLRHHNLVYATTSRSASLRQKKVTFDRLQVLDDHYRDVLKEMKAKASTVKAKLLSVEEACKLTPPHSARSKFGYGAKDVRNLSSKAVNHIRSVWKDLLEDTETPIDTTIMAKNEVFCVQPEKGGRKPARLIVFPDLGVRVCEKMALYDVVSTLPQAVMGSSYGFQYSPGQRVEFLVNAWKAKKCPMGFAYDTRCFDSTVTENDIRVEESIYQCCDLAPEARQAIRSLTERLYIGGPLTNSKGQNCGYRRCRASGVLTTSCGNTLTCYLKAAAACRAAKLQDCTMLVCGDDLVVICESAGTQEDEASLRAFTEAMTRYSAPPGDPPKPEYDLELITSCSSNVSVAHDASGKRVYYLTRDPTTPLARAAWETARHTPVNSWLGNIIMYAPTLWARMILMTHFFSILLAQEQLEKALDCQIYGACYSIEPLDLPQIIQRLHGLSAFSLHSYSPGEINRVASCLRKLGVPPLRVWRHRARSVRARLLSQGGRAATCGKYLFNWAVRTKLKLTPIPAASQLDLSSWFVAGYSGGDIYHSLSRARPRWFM
Protocol: HCV NS5B RdRp cloning, expression, and purification. The cDNA encoding the NS5B protein of HCV, genotype 1b, was cloned into the pET21a expression vector. The protein was expressed with an 18 amino acid C-terminal truncation to enhance the solubility. The E. coli competent cell line BL21(DE3) was used for expression of the protein. Cultures were grown at 37° C. for ˜4 hours until the cultures reached an optical density of 2.0 at 600 nm. The cultures were cooled to 20° C. and induced with 1 mM IPTG. Fresh ampicillin was added to a final concentration of 50 μg/ml and the cells were grown overnight at 20° C.
Cell pellets (3 L) were lysed for purification to yield 15-24 mgs of purified NS5B. The lysis buffer consisted of 20 mM Tris-HCl, pH 7.4, 500 mM NaCl, 0.5% triton X-100, 1 mM DTT, 1 mM EDTA, 20% glycerol, 0.5 mg/ml lysozyme, 10 mM MgCl2, 15 ug/ml deoxyribonuclease I, and Complete TM protease inhibitor tablets (Roche). After addition of the lysis buffer, frozen cell pellets were resuspended using a tissue homogenizer. To reduce the viscosity of the sample, aliquots of the lysate were sonicated on ice using a microtip attached to a Branson sonicator. The sonicated lysate was centrifuged at 100,000×g for 1 hr at 4° C. and filtered through a 0.2 μm filter unit (Corning).
The protein was purified using three sequential chromatography steps: Heparin sepharose CL-6B, polyU sepharose 4B, and Hitrap SP sepharose (Pharmacia). The chromatography buffers were identical to the lysis buffer but contained no lysozyme, deoxyribonuclease I, MgCl2 or protease inhibitor and the NaCl concentration of the buffer was adjusted according to the requirements for charging the protein onto the column. Each column was eluted with a NaCl gradient which varied in length from 5-50 column volumes depending on the column type. After the final chromatography step, the resulting purity of the enzyme is >90% based on SDS-PAGE analysis. The enzyme was aliquoted and stored at −80° C.
Standard HCV NS5B RdRp enzyme assay. HCV RdRp genotype 1b assays were run in a final volume of 60 μl in 96 well plates (Costar 3912). The assay buffer is composed of 20 mM Hepes, pH 7.5, 2.5 mM KCl, 2.5 mM MgCl2, 1 mM DTT, 1.6 U RNAse inhibitor (Promega N2515), 0.1 mg/ml BSA (Promega R3961), and 2% glycerol. All compounds were serially diluted (3-fold) in DMSO and diluted further in water such that the final concentration of DMSO in the assay was 2%. HCV RdRp genotype 1b enzyme was used at a final concentration of 28 nM. A polyA template was used at 6 nM, and a biotinylated oligo-dT12 primer was used at 180 nM final concentration. Template was obtained commercially (Amersham 27-4110). Biotinylated primer was prepared by Sigma Genosys. 3H-UTP was used at 0.6 μCi (0.29 μM total UTP). Reactions were initiated by the addition of enzyme, incubated at 30° C. for 60 min, and stopped by adding 25 μl of 50 mM EDTA containing SPA beads (4 μg/μl, Amersham RPNQ 0007). Plates were read on a Packard Top Count NXT after >1 hr incubation at room temperature.
Modified HCV NS5B RdRp enzyme assay. A modified enzyme assay was performed essentially as described for the standard enzyme assay except for the following: The biotinylated oligo dT12 primer was precaptured on streptavidin-coated SPA beads by mixing primer and beads in assay buffer and incubating at room temperature for one hour. Unbound primer was removed after centrifugation. The primer-bound beads were resuspended in 20 mM Hepes buffer, pH 7.5 and used in the assay at final concentrations of 20 nM primer and 0.67 μg/μl beads. Order of addition in the assay: enzyme (14 nM) was added to diluted compound followed by the addition of a mixture of template (0.2 nM), 3H-UTP (0.6 μCi, 0.29 μM), and primer-bound beads, to initiate the reaction; concentrations given are final. Reactions were allowed to proceed for 4 hours at 30° C.
IC50 values for compounds were determined using seven different [I]. […]

HCV replicon cells = test: HCV replicon FRET assay; format: cell-based; settings: Hepatitis C virus; HCV replicon cells; FRET assay; read-out: EC50
From the text: FRET Assay Preparation. To perform the HCV FRET screening assay, 96-well cell culture plates were used. The FRET peptide (Anaspec, Inc.) (Taliani et al., Anal. Biochem. 1996, 240, 60-67) contains a fluorescence donor, EDANS, near one end of the peptide and an acceptor, DABCYL, near the other end. The fluorescence of the peptide is quenched by […] resonance energy transfer (RET) between the donor and the acceptor, but as the NS3 protease cleaves the peptide the products are released from RET quenching and the fluorescence of the donor becomes apparent. The assay reagent was made as follows: 5× cell Luciferase cell culture lysis reagent from Promega (#E153A) diluted to 1× with dH2O, NaCl added to 150 mM final, the FRET peptide diluted to 20 uM final from a 2 mM stock.
To prepare plates, HCV replicon cells, with or without a Renilla luciferase reporter gene, were trypsinized and placed into each well of a 96-well plate with titrated test compounds added in columns 3 through 12; columns 1 and 2 contained a control compound (HCV protease inhibitor), and the bottom row contained cells without compound. The plates were then placed in a CO2 incubator at 37° C.
Assays. Subsequent to addition of the test compounds described above (FRET Assay Preparation), at various times the plate was removed and Alamar blue solution (Trek Diagnostics, #00-100) was added per well as a measure of cellular toxicity. After reading in a Cytoflour 4000 instrument (PE Biosystems), plates were rinsed with PBS and then used for FRET assay by the addition of 30 ul of the FRET peptide assay reagent described above (FRET Assay Preparation) per well. The plate was then placed into the Cytoflour 4000 instrument which had been set to 340 excite/490 emission, automatic mode for 20 cycles and the plate read in a kinetic mode. Typically, the signal to noise using an endpoint analysis after the reads was at least three-fold. Alternatively, after Alamar blue reading, plates were rinsed with PBS, 50 ul of DMEM (high glucose) without phenol red was added and plates were then used for luciferase assay using the Promega Dual-Glo Luciferase Assay System.
Compound analysis was determined by quantification of the relative HCV replicon inhibition and the relative cytotoxicity values. To calculate cytoxicity values, the average Alamar Blue fluorescence signals from the control wells were set as 100% non-toxic. The individual signals in each of the compound test wells were then divided by the average control signal and multiplied by 100% to determine […]. To calculate the HCV replicon inhibition values, an average background value was obtained from the two wells containing the highest amount of HCV protease inhibitor at the end of the assay period. These numbers were similar to those obtained from naïve Huh-7 cells.
The background numbers were then subtracted from the average signal obtained from the control wells and this number was used as 100% activity. The individual signals in each of the compound test wells were then divided by the averaged control values after background subtraction and multiplied by 100% to determine percent activity. EC50 values for a protease inhibitor titration were calculated as the concentration which caused a 50% reduction in FRET or luciferase activity. The two numbers generated for the compound plate, percent cytoxicity and percent activity were used to determine compounds of interest for further analysis.

Row | Structure (SMILES) | IC50 [1] | EC50 (HCV replicon cells)
1 | CCS(=O)(=O)C12CC1c1ccccc1-c1c(C3CCCCC3)c3ccc(C(=O)NS(=O)(=O)N(C)C)cc3n1C2 (stereo not drawn) | 20 to 1000 nM | 20 to 1000 nM
2 | CCS(=O)(=O)C1Cc2ccccc2-c2c(C3CCCCC3)c3ccc(C(=O)O)cc3n2C1 (stereo not drawn) | 20 to 1000 nM | 20 to 1000 nM
3 | COc1ccc2c(c1)C=C(S(=O)(=O)N1CCOCC1)Cn1c-2c(C2CCCCC2)c2ccc(C(=O)NS(=O)(=O)N(C)C)cc21 | 20 to 1000 nM | 20 to 1000 nM
4 | COc1ccc2c(c1)C1CC1(S(=O)(=O)N1CCOCC1)Cn1c-2c(C2CCCCC2)c2ccc(C(=O)NS(=O)(=O)N(C)C)cc21 (stereo not drawn) | 20 to 1000 nM | 20 to 1000 nM
5 | COc1ccc2c(c1)CC(S(=O)(=O)N1CCOCC1)Cn1c-2c(C2CCCCC2)c2ccc(C(=O)O)cc21 (stereo not drawn) | 20 to 1000 nM | 20 to 1000 nM
6 | COc1ccc2c(c1)CC(S(=O)(=O)N1CCOCC1)Cn1c-2c(C2CCCCC2)c2ccc(C(=O)NS(=O)(=O)N(C)C)cc21 (stereo not drawn) | 20 to 1000 nM | 20 to 1000 nM
7 | CN(C)S(=O)(=O)NC(=O)c1ccc2c(C3CCCCC3)c3n(c2c1)CC(S(=O)(=O)N1CCOCC1)=Cc1ccccc1-3 | 20 to 1000 nM | 20 to 1000 nM
8 | COc1ccc2c(c1)C=C(S(=O)(=O)N1CCN(C)CC1)Cn1c-2c(C2CCCCC2)c2ccc(C(=O)NS(=O)(=O)N(C)C)cc21 | 20 to 1000 nM | 20 to 1000 nM
9 | COc1ccc2c(c1)C1CC1(S(=O)(=O)N1CCN(C)CC1)Cn1c-2c(C2CCCCC2)c2ccc(C(=O)NS(=O)(=O)N(C)C)cc21 (stereo not drawn) | 20 to 1000 nM | 20 to 1000 nM
10 | COC(=O)c1ccc2c(C3CCCCC3)c3n(c2c1)CC1(S(=O)(=O)O)CC1c1cc(OC)ccc1-3 (stereo not drawn) | 70 to 1000 nM | > 1000 nM
11 | COc1ccc2c(c1)C1CC1(S(=O)(=O)N1CC3C[C@H]1CN3C)Cn1c-2c(C2CCCCC2)c2ccc(C(=O)O)cc21 (stereo partly drawn) | 20 to 1000 nM | 20 to 1000 nM
12 | COc1ccc2c(c1)C1CC1(S(=O)(=O)N1C[C@@H](C)N(C)[C@@H](C)C1)Cn1c-2c(C2CCCCC2)c2ccc(C(=O)O)cc21 (stereo partly drawn) | 20 to 1000 nM | 20 to 1000 nM
13 | COc1ccc2c(c1)C1CC1(S(=O)(=O)N1C[C@@H](C)O[C@@H](C)C1)Cn1c-2c(C2CCCCC2)c2ccc(C(=O)O)cc21 (stereo partly drawn) | 20 to 1000 nM | 20 to 1000 nM
14 | COc1ccc2c(c1)C1CC1(S(=O)(=O)N1CCN(S(C)(=O)=O)CC1)Cn1c-2c(C2CCCCC2)c2ccc(C(=O)O)cc21 (stereo not drawn) | 20 to 1000 nM | 1000 to 10000 nM
15 | COc1ccc2c(c1)C1CC1(S(=O)(=O)N1CCCN(C)CC1)Cn1c-2c(C2CCCCC2)c2ccc(C(=O)O)cc21 (stereo not drawn) | 20 to 1000 nM | 20 to 1000 nM
